{
  "source": "paper PMC5030134",
  "about": "(Nature chemical biology, 2016)",
  "biological_target": "T1, α-xylosidase (Xylsa) (Saccharolobus solfataricus, UniProt Q9P999)",
  "T1 sequence (Q9P999 1-731)": "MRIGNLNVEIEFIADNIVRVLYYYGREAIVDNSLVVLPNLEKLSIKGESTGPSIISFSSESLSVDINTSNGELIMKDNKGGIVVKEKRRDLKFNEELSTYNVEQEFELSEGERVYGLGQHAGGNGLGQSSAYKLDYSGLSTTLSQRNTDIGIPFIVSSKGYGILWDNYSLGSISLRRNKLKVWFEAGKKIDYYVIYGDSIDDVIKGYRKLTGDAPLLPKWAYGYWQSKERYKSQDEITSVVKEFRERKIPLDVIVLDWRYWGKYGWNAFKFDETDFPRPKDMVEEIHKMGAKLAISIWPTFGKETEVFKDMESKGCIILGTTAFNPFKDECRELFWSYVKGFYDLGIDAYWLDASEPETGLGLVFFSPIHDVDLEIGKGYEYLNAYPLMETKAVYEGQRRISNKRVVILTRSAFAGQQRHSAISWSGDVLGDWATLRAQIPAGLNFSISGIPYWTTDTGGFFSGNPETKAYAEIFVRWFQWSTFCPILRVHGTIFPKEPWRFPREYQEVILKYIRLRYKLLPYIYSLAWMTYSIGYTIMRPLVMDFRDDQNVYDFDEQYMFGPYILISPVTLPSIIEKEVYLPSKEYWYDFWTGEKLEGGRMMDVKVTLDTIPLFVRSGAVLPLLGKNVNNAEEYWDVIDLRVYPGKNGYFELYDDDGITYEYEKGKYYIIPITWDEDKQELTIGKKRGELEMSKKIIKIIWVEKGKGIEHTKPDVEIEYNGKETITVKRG",
  "assay": "HPLC and ESI-MS of digestion product",
  "assay_type": "biochemical",
  "settings": "150 mM sodium acetate pH 5.5, 65 °C, 3 h; second step, gives G3",
  "data": [
    {"smiles": "Cc1cc(=O)oc2cc(O[C@@H]3O[C@H](C(=O)O)[C@@H](O)[C@H](O[C@H]4OC[C@@H](O)[C@H](O[C@@H]5O[C@H](C(=O)O)[C@@H](O)[C@H](O[C@H]6OC[C@@H](O)[C@H](O)[C@H]6O)[C@H]5O)[C@H]4O)[C@H]3O)ccc12", "note": "[G4]", "values": [
      {"measurement": "HPLC and ESI-MS of digestion product", "result": "The product of the first step of G5 digestion was incubated with Xylsa"}
    ]}
  ]
}
